Assay results from paper PMC6400287 (Cell reports, 2018).

Target: T1, REV-ERBα (Homo sapiens, UniProt P20393)
T1 sequence (P20393 1-614): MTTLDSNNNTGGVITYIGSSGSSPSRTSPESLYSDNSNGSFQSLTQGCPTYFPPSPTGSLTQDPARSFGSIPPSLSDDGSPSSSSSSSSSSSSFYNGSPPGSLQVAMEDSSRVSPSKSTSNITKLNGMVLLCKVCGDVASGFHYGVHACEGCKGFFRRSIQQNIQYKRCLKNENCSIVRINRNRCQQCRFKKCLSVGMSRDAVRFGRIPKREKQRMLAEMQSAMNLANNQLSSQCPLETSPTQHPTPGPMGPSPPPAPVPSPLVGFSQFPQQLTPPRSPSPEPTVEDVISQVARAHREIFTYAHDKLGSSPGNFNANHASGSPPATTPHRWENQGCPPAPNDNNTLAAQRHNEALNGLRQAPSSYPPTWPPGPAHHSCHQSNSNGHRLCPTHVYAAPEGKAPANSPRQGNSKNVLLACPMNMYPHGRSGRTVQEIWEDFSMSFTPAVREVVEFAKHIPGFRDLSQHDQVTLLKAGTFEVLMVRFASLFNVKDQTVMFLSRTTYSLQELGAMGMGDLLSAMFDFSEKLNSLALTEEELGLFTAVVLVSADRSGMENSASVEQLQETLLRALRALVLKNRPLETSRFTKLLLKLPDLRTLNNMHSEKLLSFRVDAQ
Assay: cotransfection Il17a+CNS5 luciferase reporter assay in HEK293 cells
Type: cell-based

CCOC(=O)N1CCC(CN(Cc2ccc(Cl)cc2)Cc2ccc([N+](=O)[O-])s2)C1 (stereo not shown) [SR9009]
cotransfection Il17a+CNS5 luciferase reporter assay in HEK293 cells: Both SR9009 and SR12418 dose-dependently inhibited Il17a lucif-erase activity at REV-ERBα and REV-ERBβ
